Measured values as given in US20050282818A1, “Ubiquitin ligase inhibitors” (Rigel Pharmaceuticals, Inc., priority 2004, published 2005).
Read-outs that look alike come from different tables or passages of the source.

Assays:
[1] = system: ICAM-1 expression in A549 cells; assay: ICAM assay (IL-1 induced ICAM-1/CD54 expression in A549 cells); type: cell-based, human; conditions: Homo sapiens, A549, ICAM assay
Summary of the method: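 Luminescent immunostaining (anti-CD54, then anti-mouse IgG, 1 h) quantifies ICAM-1 on A549 cells induced 4 h at 37° C by IL-1 (4 μl of 25 ng/ml added). Compound is added 1 h before the cytokine to cells plated overnight at 10,000 per well.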

ROC1/CUL1 = biological target: T1, ROC1/CUL1 (Homo sapiens, UniProt P62877+Q13616); assay: ROC1/CUL1 ubiquitin ligase assay (SCF assay); type: biochemical
T1 construct: made in house
Description: Inhibition of ubiquitin ligase activity of E1+E2+E3 was measured using the protocol as described in WO 01/75145 with E3 as the ROC1/CUL1, ROC1/CUL2, or ROC2/CUL5 complex.
The wells of nickel-substrate 96-well plates (Pierce Chemical) are blocked with 100 μl of 1 casein/phosphate buffered saline (PBS) for 1 hour at room temperature, then washed with 200 μl of PBST (0.1% Tween-20 in PBS) 3 times. To each well is added the following Flag-ubiquitin (see above) reaction solution: 62.5 mM Tris pH 7.5, 6.25 mm MgCl2, 0.75 mM DTT, 2.5 mM ATP, 2.5 mM NaF1, 2.5 nM Okadaic acid, 100 ng Flag-ubiquitin (made as described above).
The buffer solution is brought to a final volume of 80 μl with Milipore-filtered water, followed by the addition of 10 μl DMSO.
To the above solution is then added 10 μl of ubiquitination enzymes in 20 mM Tris buffer, pH 7.5, and 5% glycerol. E2-Ubch5c and E3-His ROC1/Cul1, ROC1/CUL2, and ROC2/CUL5 are made as described in WO 01/75145. E1 is obtained commercially (Affiniti Research Products, Exeter, U. K.). The following amounts of each enzyme are used for these assays: 5 ng/well of E1; […] E2; and 100 ng/well His-E3. Varying amounts of compounds according to the invention are added and the reaction allowed to proceed at room temperature for 1 hour.
Following the ubiquitination reaction, the wells are washed with 200 μl of PBST 3 times. For measurement of the enzyme-bound ubiquitin, 100 gel of Mouse anti-Flag (1:10,000) and anti-Mouse Ig-HRP (1:15, 000) in PBST are added to each well and allowed to incubate at room temperature for 1 hour. The wells are then washed with 200 μl of PBST 3 times, followed by the addition of 100 μl of luminol substrate (1/5 dilution). Luminescence for each well is then measured using a fluorimeter.
Table 2 below illustrates the inhibitory activity of the compounds of the invention determined by the TRAF6/Uev1A/Ubc13 assay as well as in the ICAM, APC and the ROC1/CUL1 Ubiquitin Ligase Assay (SCF Assay). The IC50 values were determined using a various concentrations of the compounds.

TRAF6/Uev1A/Ubc13 = biological target: T2, TRAF6/Uev1A/Ubc13 (Homo sapiens, UniProt Q9Y4K3); assay: TRAF6/Uev1A/Ubc13 plate-based ubiquitin ligase assay; type: biochemical
T2 sequence (Q9Y4K3 1-522): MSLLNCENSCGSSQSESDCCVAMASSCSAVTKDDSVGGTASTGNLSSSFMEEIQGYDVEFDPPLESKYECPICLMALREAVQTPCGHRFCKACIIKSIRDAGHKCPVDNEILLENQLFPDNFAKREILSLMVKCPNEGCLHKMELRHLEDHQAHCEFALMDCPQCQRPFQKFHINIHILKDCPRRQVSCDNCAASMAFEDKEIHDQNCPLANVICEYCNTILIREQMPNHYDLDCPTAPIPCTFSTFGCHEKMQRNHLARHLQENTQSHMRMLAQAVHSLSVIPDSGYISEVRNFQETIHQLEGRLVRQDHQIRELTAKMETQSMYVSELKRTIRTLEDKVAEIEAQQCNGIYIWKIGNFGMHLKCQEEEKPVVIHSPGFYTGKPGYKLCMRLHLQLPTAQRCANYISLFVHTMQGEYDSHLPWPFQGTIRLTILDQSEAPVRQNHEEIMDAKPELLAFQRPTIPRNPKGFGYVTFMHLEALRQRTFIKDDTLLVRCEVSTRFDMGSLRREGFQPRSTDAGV
Summary of the method: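 Ligase activity was read as luminescence from anti-Flag/HRP detection of Flag-ubiquitin bound to casein-blocked Ni-plates alongside His-ubiquitin after a 1 h room-temperature reaction. Buffer: 62.5 mM Tris pH 7.5, 6.25 mM MgCl2, 1.0 mM DTT, 2 μM ATP; E1, Uev1a/Ubc13 and TRAF6 added last to start. IC50s derived across compound concentrations.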

APC11/APC2 = APC11/APC2 (Homo sapiens, UniProt Q9NYG5+Q9UJX6); assay: APC-11/APC-2 ligase assay (APC auto ubiquitination); type: biochemical; conditions: APC assay
Summary of the method: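 His-tagged APC was captured on nickel plates with human E1 (5 ng/well), UbcH5c (20 ng/well), APC (100 ng/well) and Flag-ubiquitin (100 ng/well) in a Tris pH 7.6 reaction buffer containing 2.5 mM ATP, for 1 hour at room temperature. Read-out was anti-Flag/HRP chemiluminescence. IC50 was set against a DMSO control, typically from 6 or 8 concentrations.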

H1299 cells = assay: Cell proliferation PAD assay, H1299; type: cell-based; conditions: Homo sapiens, 48 hours
Summary of the method: (§1)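 Each line, seeded at 2,000 cells/well, received duplicate 6.3-fold compound dilutions (10 mM stock, diluted 500× into medium) one day after plating. Exposure lasted 48 h; fixed cells were DAPI-stained and photographed, and images were analysed for live, apoptotic and dead cell numbers.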

A549 cells = assay: Cell proliferation PAD assay, A549; type: cell-based; conditions: Homo sapiens, 48 hours
Summary of the method: as §1

UACC-257 cells = assay: Cell proliferation PAD assay, UACC-257; type: cell-based; conditions: Homo sapiens, UACC257 cells, 6pt, 48 hours
Description: (§2) Cell lines used are available from American Type Culture Collection (ATCC), for example, cell cultures containing A549 (ATCC# CCL-185), HeLa (ATCC# CCL-2), HCT116 ATTC# CCL-247), and H1299 (ATCC# CRL-5803) cells were maintained in T175 flasks following the ATCC recommended media and handling procedures. […] A 20,000 cells/ml solution was made for plating. Cells were plated in black Packard 96 well plates by placing 100 μl per well (2,000 cells per well). […] The definitions of the cell types used are as follows: A549 is lung carcinoma; HI 299 is non-small cell lung carcinoma; HI 155 is non-small cell lung carcinoma; AsPC-1 is pancreatic adenocarcinoma; Caov-3 is ovarian adenocarcinoma; COLO 205 is colorectal adenocarcinoma; DLD-1 colorectal adenocarcinoma; HCT116 is colorectal carcinoma; DU 145 is prostate carcinoma; ES-2 is ovarian clear cell carcinoma; H460 is large cell lung carcinoma; HELA is cervical adenocarcinoma; MIA PaCa-2 is pancreatice carcinoma; OVCAR-3 is ovarian adenocarcinoma; OVCAR8 is ovarian carcinoma; PC3 is prostate adenocarcinoma; SK-OV-3 is ovarian adenocarcinoma; SU86.86 is pancreatic carcinoma; TOV-21G is avarian clear cell carcinoma; U2OS is bone osteosarcoma; is ASPC-I is pancreatic adenocarcinoma; BXPC-3 is pabcreatic adenocarcinoma; HL60 is promyeloblast promyelocytic leukemia; K562 is bone marrow chronic myelogenous leukemia; L1210 is mouse lymphocytic leukemia; MOLT3 is T lymphoblast acute lymphoblastic leukemia; MOLT4 is T lymphoblast acute lymphoblastic leukemia; SW620 is colorectal adenocarcinoma; THP-1 is monocyte acute monocytic leukemia; U937 is histiocytic lymphoma; and UACC-257 is melanoma.
(§3) Compounds and additional media were added 24 hours after cell plating. […] All compound testing was done in duplicate using 6.3 fold dilutions starting with 10 mM. […] Taxol and at least one additional control were run on all plates. Three microliters of the compound master plate were added to deep well blocks containing 750 μl of RPMI media. One hundred microliters were transferred from the compound/media deep well blocks to the plated cells resulting in a 500 fold dilution of the compounds. Cells were grown at 37° C., 5% CO2 for 48 hours.
(§4) Cells to be analyzed by photography were fixed and stained. One hundred microliters of media were removed and 100 μl of 9.3% formamide was added to each well. Plates were left on the benchtop for 45 minutes. A staining solution containing 1.55 μl of 1 mg/ml DAPI added to 18.75 ml PBS was warmed for 15 minutes at 37° C. The cells were aspirated prior to washing with 100 μl of PBS. Seventy microliters of PBS were aspirated and 170 μl of the DAPI solution were added to each well of fixed cells. Plates were left at room temperature for one hour then aspirated and washed twice with 100 μl of PBS. The stained cells were left at 4° C. for a minimum of 16 hours before photographic analysis with Array Scan II (Cellomics). Analysis of the photographic images to determine numbers of live cells (proliferation), apoptotic cells and dead cells, were according to the methods described in U.S. Utility patent application Ser. No. 10/652,440, which incorporated herein in its entirety.

OVCAR8 cells = assay: Cell proliferation PAD assay, OVCAR8; type: cell-based; conditions: Homo sapiens, OVCAR-8, 6pt, 48 hours
Description: as §2, §3, §4

[2] = NCI-H1299, 3pt, read-out: H1299 3pt
[3] = NCI-H1299, 6pt, read-out: H1299 6pt

T1 sequence (P62877 whole entry): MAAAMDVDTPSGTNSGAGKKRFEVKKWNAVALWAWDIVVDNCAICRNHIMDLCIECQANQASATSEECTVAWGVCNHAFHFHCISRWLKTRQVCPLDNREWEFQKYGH
T1 sequence (Q13616 whole entry): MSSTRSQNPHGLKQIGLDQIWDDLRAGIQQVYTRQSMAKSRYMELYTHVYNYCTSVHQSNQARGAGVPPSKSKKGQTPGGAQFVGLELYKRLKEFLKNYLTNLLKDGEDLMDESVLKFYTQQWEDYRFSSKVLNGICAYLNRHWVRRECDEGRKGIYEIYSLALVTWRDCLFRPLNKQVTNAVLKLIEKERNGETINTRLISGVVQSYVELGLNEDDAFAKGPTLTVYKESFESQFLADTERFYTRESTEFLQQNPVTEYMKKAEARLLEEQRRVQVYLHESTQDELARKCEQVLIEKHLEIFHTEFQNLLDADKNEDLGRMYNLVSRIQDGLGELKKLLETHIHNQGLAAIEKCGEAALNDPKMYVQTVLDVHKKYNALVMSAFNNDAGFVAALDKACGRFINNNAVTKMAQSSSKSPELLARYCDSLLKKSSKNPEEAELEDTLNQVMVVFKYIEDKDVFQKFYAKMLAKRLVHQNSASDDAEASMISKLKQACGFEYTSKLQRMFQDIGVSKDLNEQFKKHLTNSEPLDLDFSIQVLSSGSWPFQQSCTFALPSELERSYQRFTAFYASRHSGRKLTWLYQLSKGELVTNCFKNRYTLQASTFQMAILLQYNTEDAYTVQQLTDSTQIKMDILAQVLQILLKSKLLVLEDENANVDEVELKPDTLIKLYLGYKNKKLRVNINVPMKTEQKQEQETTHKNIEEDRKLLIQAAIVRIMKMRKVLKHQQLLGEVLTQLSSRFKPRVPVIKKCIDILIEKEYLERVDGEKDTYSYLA
APC11/APC2, sequence (Q9NYG5 whole entry): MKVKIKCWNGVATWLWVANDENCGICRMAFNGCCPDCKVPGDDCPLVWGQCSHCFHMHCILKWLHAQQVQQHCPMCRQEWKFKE
APC11/APC2, sequence (Q9UJX6 whole entry): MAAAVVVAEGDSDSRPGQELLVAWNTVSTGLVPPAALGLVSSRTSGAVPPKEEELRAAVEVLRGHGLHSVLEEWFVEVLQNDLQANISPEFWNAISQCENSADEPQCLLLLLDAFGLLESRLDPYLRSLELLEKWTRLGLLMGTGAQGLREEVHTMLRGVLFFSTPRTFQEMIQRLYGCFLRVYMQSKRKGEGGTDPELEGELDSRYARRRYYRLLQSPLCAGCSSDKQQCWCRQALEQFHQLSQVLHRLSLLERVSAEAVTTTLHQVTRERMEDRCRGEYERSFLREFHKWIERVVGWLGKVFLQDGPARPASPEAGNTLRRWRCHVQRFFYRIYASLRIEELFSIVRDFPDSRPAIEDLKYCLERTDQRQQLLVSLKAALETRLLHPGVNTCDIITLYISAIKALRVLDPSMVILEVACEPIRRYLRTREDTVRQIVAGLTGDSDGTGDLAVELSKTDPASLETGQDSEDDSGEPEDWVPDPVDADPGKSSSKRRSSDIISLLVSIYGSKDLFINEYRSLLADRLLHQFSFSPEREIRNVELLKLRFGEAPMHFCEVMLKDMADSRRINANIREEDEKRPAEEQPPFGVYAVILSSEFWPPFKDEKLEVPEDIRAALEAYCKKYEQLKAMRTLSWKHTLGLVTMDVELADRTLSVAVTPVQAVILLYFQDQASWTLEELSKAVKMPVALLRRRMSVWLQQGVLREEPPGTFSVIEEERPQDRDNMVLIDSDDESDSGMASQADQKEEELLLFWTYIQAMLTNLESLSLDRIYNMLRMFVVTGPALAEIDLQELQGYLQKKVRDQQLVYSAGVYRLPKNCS

SMILES	IC50 [1] [µM]	IC50 (ROC1/CUL1) [µM]	IC50 (TRAF6/Uev1A/Ubc13) [µM]	IC50 (APC11/APC2) [µM]	IC50 (H1299 cells; [2]) [µM]	IC50 (H1299 cells; [3]) [µM]	IC50 (A549 cells; 3pt, read-out: A549 3pt) [µM]	IC50 (A549 cells; 6pt, read-out: A549 6pt) [µM]	IC50 (OVCAR8 cells) [µM]	IC50 (UACC-257 cells) [µM]
Cc1ccc(N2CCN(S(=O)(=O)c3c(N4CCN(c5cccc(C)n5)CC4)ccc4nonc34)CC2)nc1 [compound 203, 5-[4-(6-methylpyridin-2-yl)piperazin-1-yl]-4-{[4-(5-methylpyridin-2-yl)piperazin-1-yl]sulfonyl}-2,1,3-benzoxadiazole]	≥ 20	≥ 20	1 to 20	–	–	–	–	–	–	–
O=[N+]([O-])c1cc(Cl)c(Oc2ccc(S(=O)(=O)Nc3cccc4nonc34)cc2Cl)c(Cl)c1 [compound 79, N-2,1,3-benzoxadiazol-4-yl-3-chloro-4-(2,6-dichloro-4-nitrophenoxy)benzenesulfonamide]	–	–	1 to 20	–	1 to 20	1 to 20	1 to 20	1 to 20	1 to 20	≥ 20
CC1CC(C)CN(c2ccc(S(=O)(=O)N3CC(C)CC(C)C3)c3nonc23)C1 (stereo not drawn) [compound 193, 4-(3,5-dimethylpiperidin-1-yl)-7-[(3,5-dimethylpiperidin-1-yl)sulfonyl]-2,1,3-benzoxadiazole]	–	1 to 20	1 to 20	1 to 20	–	–	–	–	–	–
COc1ccccc1NS(=O)(=O)c1cccc2nonc12 [compound 11, N-(2-methoxyphenyl)-2,1,3-benzoxadiazole-4-sulfonamide]	–	–	1 to 20	–	≥ 20	–	≥ 20	–	≥ 20	≥ 20
COC(=O)c1ccc(Nc2ccc(S(=O)(=O)Nc3ccc(C(=O)OC)cc3)c3nonc23)cc1 [compound 9, Methyl 4-{[(7-{[4-(methoxycarbonyl)phenyl]amino}-2,1,3-benzoxadiazol-4-yl)sulfonyl]amino}benzoate]	–	–	≥ 20	–	≥ 20	≥ 20	≥ 20	1 to 20	≥ 20	≥ 20

More lines, main results first:

IC50 [1] [µM]	IC50 (ROC1/CUL1) [µM]	IC50 (TRAF6/Uev1A/Ubc13) [µM]	IC50 (APC11/APC2) [µM]	IC50 (H1299 cells; [2]) [µM]	IC50 (H1299 cells; [3]) [µM]	IC50 (A549 cells; 3pt, read-out: A549 3pt) [µM]	IC50 (A549 cells; 6pt, read-out: A549 6pt) [µM]	IC50 (OVCAR8 cells) [µM]	SMILES	IC50 (UACC-257 cells) [µM]
–	1 to 20	1 to 20	1 to 20	–	–	–	–	–	O=C(Nc1cccc2nonc12)C1CN(c2ncccc2Cl)C1 [compound 486, N-(2,1,3-benzoxadiazol-4-yl)-1-(3-chloropyridin-2-yl) azetidine-3-carboxamide]	–
–	–	≥ 20	–	≥ 20	≥ 20	≥ 20	≥ 20	≥ 20	O=C(CN1CCN(c2ccc([N+](=O)[O-])c3nonc23)CC1)N1CCOCC1 [compound 107, 4-[4-(2-morpholin-4-yl-2-oxoethyl)piperazin-1-yl]-7-nitro-2,1,3-benzoxadiazole]	≥ 20
–	–	–	–	≥ 20	–	≥ 20	–	≥ 20	O=S(=O)(Nc1ccncc1)c1ccc2nonc2c1 [compound 26, N-pyridin-4-yl-2,1,3-benzoxadiazole-5-sulfonamide]	≥ 20
≥ 20	≥ 20	1 to 20	–	–	–	–	–	–	COC(=O)c1ccc(NS(=O)(=O)c2c(Sc3cccc4cccnc34)ccc3nonc23)cc1 [compound 215, methyl 4-({[5-(quinolin-8-ylthio)-2,1,3-benzoxadiazol-4-yl]sulfonyl}amino)benzoate]	–
